Measurements reported in patent US6582902B1, “Method for deriving epitopes” (priority 1992, dated 2003).
No end group written: not given here.

Key:
[1] = system: anti-g10 serum; assay: Competition for immunoprecipitation of [32P] D10 RNA by anti-g10 serum; type: binding, rabbit; details: FIG. 5A (125 mg competitor) and FIG. 5B (g10 peptide 37-444 nM)
Protocol: [^32P] labeled in vitro transcribed D10 RNA or [^35S] labeled in vitro translated g10 fusion protein (g10-U1A) was immunoprecipitated by the anti-g10 serum in the presence of various competitors. D10 RNA and g10 fusion protein bound in the immunoprecipitations were analyzed using denaturing polyacrylamide gels and autoradiography. Panel A: D10 RNA immunoprecipitations with: 1, no competitor; 2, no g10 antiserum added; 3, 125 mg of g10 peptide; 4, 125 mg of bovine serum albumin; 5, 125 mg of control peptide (sequence ETPEEREERRR) (SEQ ID NO:7). Panel B: D10 immunoprecipitations after incubation with increasing amounts of g10 peptide. Lanes: 1, no competitor; 2, 37 nM; 3, 74 nM; 4, 148 nM; 5, 222 nM; 6, 444 nM. Panel C: immunoprecipitations of a g10 containing fusion protein (g10-U1-A) using various competitors. Lanes: 1, no competitor; 2, preimmune rabbit serum; 3, 7.4 nM g10 peptide; 4, 0.7 nM D10 RNA; 5, 0.7 nM unrelated RNA (cDNA encoding loop sequence: ACGTTCGTCG)(SEQ ID NO:8). Panel D: immunoprecipitation of g10-U1A fusion protein after incubation with increasing amounts of D10 RNA. Lanes: 1, no competitor; 2, 0.0175 nM; 3, 0.035 nM; 4, 0.35 nM; 5, 0.7 nM; 6, 1.05 nM.
Competition experiments were performed by addition of the various competitors to [^32P] labeled RNA or [^35S] labeled in vitro translated g10-snRNP-A fusion protein prior to immunoprecipitation. Bound RNAs were analyzed on 6% denaturing acrylamide gels and proteins on 10% SDS-PAGE gels, followed by autoradiography. Antibody-RNA complexes were formed in the presence of competitor g10 peptide or control peptide (FIG. 5A), or with increasing amounts of g10 peptide (FIG. 5B), and uncompeted RNA was recovered by immunoprecipitation.

[2] = system: g10-reactive antibodies (anti-g10 serum); assay: Competition for immunoprecipitation of [35S] g10-U1-A fusion protein by anti-g10 serum; type: binding, rabbit; details: FIG. 3B lanes 8-12; g10 peptide 27.8-750 nM; control peptide 25 mM
Source text: (§1) Panel A: Western blot of E. coli extracts containing various U1-A protein constructs. All extracts were produced from induced E. coli cells containing recombinant pET-8c T7 expression vectors in accordance with known techniques. See F. Studier et al., Meth. Enzym. 185, 60-89 (1991). U1-A cDNA was cloned into pET-8c either attached or not attached to the g10 peptide. Lanes: 1, 5 and 9: the pET-8c vector alone; 2, 6 and 10: g10-U1-A protein; 3, 7 and 11: U1-A protein; 4, 8 and 12: total HeLa cell extracts. Lanes 1-4 were probed with pre-immune rabbit serum; lanes 5-8 were probed with anti-g10 serum; and lanes 9-12 were probed with a U1/U2-specific autoimmune serum (patient). EW reacts with U1 RNA, U1-70K (70 kDa), U1-A (31 kDa) and U2-A′ (28.4 kDa) (lane 12). Panel B: Immunoprecipitation and competition analysis of [^35S]-methionine-labeled U1-A and g10-U1-A proteins expressed by in vitro transcription, and subsequent translation in rabbit reticulocyte lysates. Lanes: 1 and 2 show the amount of U1-A and g10-U1-A translation product, respectively, added to each immunoprecipitation reaction; 3: blank; 4 and 5: U1-A and g10-U1-A precipitated with serum EW (reactive with U1-A); 6 and 7: U1-A and g10-U1-A, respectively, precipitated with anti-g10 serum. In lanes 8-12, g10-U1-A was precipitated with anti-g10 serum in the presence of varying amounts of competitors as follows: lanes 8-11 contained the g10 peptide at concentrations of 27.8, 83.3, 250 and 750 nM, respectively; lane 12 contained a control peptide (sequence GKSRGFAFVEFK-amide) (SEQ ID NO:4) at a concentration of 25 mM. The faint lower band in all lanes represents either a degradation product or a premature translation termination product and is seen consistently in U1-A translations.
[^32P] labeled in vitro transcribed D10 RNA or [^35S] labeled in vitro translated g10 fusion protein (g10-U1A) was immunoprecipitated by the anti-g10 serum in the presence of various competitors. D10 RNA and g10 fusion protein bound in the immunoprecipitations were analyzed using denaturing polyacrylamide gels and autoradiography. […]

[3] = system: U1/U2-specific autoimmune serum (patient); assay: Western blot probed with control anti-U1-A autoimmune serum (patient); type: binding, human; details: FIG. 3A lanes 9-12
Source text: as §1
(§2) A thirteen amino acid peptide was synthesized representing the amino-terminus of g10-fusion proteins expressed from the Studier T7 expression vectors (F. Studier et al., Meth. Enzym. 185, 60-89 (1991)) (peptide sequence: MASMTGGQQMGRC-carboxyl amide (SEQ ID NO:11), purchased from Multiple Peptide Systems). […]

[4] = system: anti-g10 serum; assay: Western blot of E. coli / HeLa extracts probed with anti-g10 serum; type: binding, rabbit; details: FIG. 3A lanes 5-8; serum diluted 1:2000
Source text: as §1, §2

[5] = system: anti-g10 serum; assay: Immunoprecipitation of [35S]-labeled in vitro translated proteins with anti-g10 serum; type: binding, rabbit; details: FIG. 3B lanes 6-7
Source text: as §1, with “In lanes 8-12, g10-U1-A was precipitated with anti-g10 serum in the presence of varying amounts of competitors as follows: lanes 8-11 contained the g10 peptide at concentrations of 27.8, 83.3, 250 and 750 nM, respectively; lane 12 contained a control peptide (sequence GKSRGFAFVEFK-amide) (SEQ ID NO:4) at a concentration of 25 mM. The faint lower band in all lanes represents either a degradation product or a premature translation termination product and is seen consistently in U1-A translations.” left out

inhibition of anti-g10 antibody binding to g10-U1-A by free peptide [2] | Substance | effect of competitor on D10 RNA precipitation by the anti-g10 serum [1] | reactivity with control anti-U1-A serum in Western blot [3] | reactivity with anti-g10 serum in Western blot [4] | precipitation by anti-g10 serum (immunoprecipitation) [5]
 | ETPEEREERRR [unrelated peptide] | neither bovine serum albumin nor an unrelated peptide showed any effect |  |  | 
inhibited | MASMTGGQQMGRC-carboxyl amide (MASMTGGQQMGRC-NH2) [g10 peptide, reference compound] | inhibited RNA binding |  |  | 
 | authentic HeLa cell U1-A: endogenous U1-A (31 kDa) in total HeLa cell extracts |  | reacted | not | 
 | bovine serum albumin: bovine serum albumin used as control competitor | neither bovine serum albumin nor an unrelated peptide showed any effect |  |  | 
 | g10-U1-A fusion protein: g10-tagged U1-snRNP A protein |  | reacted | reacted | precipitated
 | recombinant U1-A: U1-A protein expressed without the g10 peptide |  | reacted | not | not
